Patent publication EP0737691A1, “Bombesin analogs” (BIOMEASURE, INC., priority 1995, dated 1996)
Like-named read-outs stand apart in the source and are kept apart here. Square brackets hold non-standard residues; d marks the D form. Peptide text beside a SMILES is read from it. Nle = CCCC[C@H](N)C(=O)O; βAla = NCCC(=O)O

Key:
[1] = system: R-3327/H prostate tumor; test: Assay on in vivo prostate tumor growth; parameters: species or system Copenhagen male rats; conditions: 200 mg/inj. s.c., B.I.D., 24 days; castrated rats with tumors escaped from castration inhibition; versus vehicle; after day 17; Fig. 1
Text: The androgen responsive R-3327/H prostate tumor line was implanted into 38 testes-intact, syngeneic Copenhagen male rats. The tumored animals were individually staged for castration when their tumors reached a size approximating 235 mgs. Tumors were then staged for bombesin analogue treatment when two sequential tumor measurements indicated an "escape from castration inhibition" condition, as evidenced by an increase in tumor growth rate. This transition of the prostate tumor tissue from androgen sensitive to androgen insensitive occurred without surgical perturbation of the tumor, thus providing a clinically realistic model for evaluating the anti-prostate tumor activity of the bombesin analogues.
The tumored animals were separated into two groups of 19 animals. Treatment was only initiated when tumors reached the "escape from castration inhibition" condition. Group 1 received 0.2 ml/inj. of 2.6% glycerol/water vehicle, (s.c., B.I.D.). Group 2 received a […]. of Analog #5 (s.c., B.I.D.). […] Tumors were measured using Vernier calipers and the volume was calculated using the following formula: (0.5)(length)(width)^2
Fig. 1 illustrates the tumor growth inhibitory effect of the treatments in Group 1 and Group 2. Relative tumor volume was calculated by the following formula: (Tumor Volume (measuring day))/(Tumor Volume (staging day))x 100 [formula] […]

[2] = biological target: T1, GRP receptor (Rattus norvegicus, UniProt P52500); test: GRP Receptor Binding Assay ([125I-Tyr4] bombesin displacement, AR42J cell membranes)
T1 construct: endogenous in cells; host or cells: Rat AR42J pancreatic acinar cells (membranes)
Procedure: Rat AR42J pancreatic acinar cells were cultured in Dulbecco's modified Eagle's medium without antibiotics and supplemented with 10% (vol/vol) fetal calf serum. The incubation atmosphere consisted of 10% CO2-90% humidified air at 37°C.
(§1) Membranes for the bombesin receptor binding assay were obtained by homogenizing AR42J cells (Polytron, setting 6, 15 sec)(Brinkman, Westbury, NY) in ice-cold 50 mM Tris-HCl (Buffer A) and centrifuging twice at 39,000 x g (10 min), with an intermediate resuspension in fresh Buffer A. The final pellets were resuspended in 50 mM Tris-HCl, containing 0.1 mg/ml bacitracin, and 0.1% BSA (Buffer B), and held on ice for the receptor binding assay.

[3] = biological target: T2, rat NMB receptor (Rattus norvegicus, UniProt P24053); test: NMB Receptor Binding Assay (membranes of BALB-3T3 fibroblasts transfected with the rat NMB receptor); conditions: for IC50: affinity for the NMB receptor, BALB-3T3 fibroblasts transfected with the rat NMB receptor, 30 min, 4°C
T2 construct: expressed in transfected cells; host or cells: BALB-3T3 (mouse) fibroblasts
T2 sequence (P24053 1-390): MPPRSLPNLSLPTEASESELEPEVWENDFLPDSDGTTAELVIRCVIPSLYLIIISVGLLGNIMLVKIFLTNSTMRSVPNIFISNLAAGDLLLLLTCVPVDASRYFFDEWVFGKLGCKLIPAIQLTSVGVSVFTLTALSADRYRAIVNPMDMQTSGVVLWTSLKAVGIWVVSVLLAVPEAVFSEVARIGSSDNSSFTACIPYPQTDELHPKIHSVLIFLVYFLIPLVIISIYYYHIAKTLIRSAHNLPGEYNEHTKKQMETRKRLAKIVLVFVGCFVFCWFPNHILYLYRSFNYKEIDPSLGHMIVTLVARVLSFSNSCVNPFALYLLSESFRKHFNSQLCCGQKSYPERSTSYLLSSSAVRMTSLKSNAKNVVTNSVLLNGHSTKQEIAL
Procedure: The procedure for transfecting the rat NMB receptor into BALB-3T3 fibroblasts is discussed in Wada, et al., Neuron, […] (1991) and Benya, et al., Mol. Pharmacol., 42:1058 (1992).
as §1, with “[…] fibroblasts, transfected with the rat NMB receptor” for “AR42J cells”, “sec)” for “sec)(Brinkman, Westbury, NY)”
For assay, aliquots (0.4 ml) were incubated with 0.05 ml [^125 I-Tyr^4] bombesin (∼2200 Ci/mmol, New England Nuclear) and Buffer B, with and without 0.05 ml of unlabeled competing analogs. After a 30 min incubation (4°C), the bound [^125 I-Tyr^4] bombesin was separated from the free by rapid filtration through Whatman™ GF/B filters which had been previously soaked in 0.3% polyethyleneimine using a Brandel filtration manifold. The filters were then washed three times with 5 ml aliquots of ice-cold Buffer A. Specific binding was defined as the total [^125 I-Tyr^4] […] bound minus that bound in the presence of 1 µM unlabeled neuromedin-B.
Replacement of Gly at position A^6 in a prior art compound (i.e., litorin, leu-litorin, and [D-Phe^1, Leu^8,9] litorin) with β-Ala led unexpectedly to a great increase in their affinity for the NMB receptor. […] Modifications at position A^1, A^8, or A^9 further increases the affinity. […]

[4] = affinity for the GRP receptor, [125I-Tyr4] bombesin, rat AR42J pancreatic acinar cell membranes, 30 min, 4°C, read-out: IC50

T1 sequence (P52500 whole entry): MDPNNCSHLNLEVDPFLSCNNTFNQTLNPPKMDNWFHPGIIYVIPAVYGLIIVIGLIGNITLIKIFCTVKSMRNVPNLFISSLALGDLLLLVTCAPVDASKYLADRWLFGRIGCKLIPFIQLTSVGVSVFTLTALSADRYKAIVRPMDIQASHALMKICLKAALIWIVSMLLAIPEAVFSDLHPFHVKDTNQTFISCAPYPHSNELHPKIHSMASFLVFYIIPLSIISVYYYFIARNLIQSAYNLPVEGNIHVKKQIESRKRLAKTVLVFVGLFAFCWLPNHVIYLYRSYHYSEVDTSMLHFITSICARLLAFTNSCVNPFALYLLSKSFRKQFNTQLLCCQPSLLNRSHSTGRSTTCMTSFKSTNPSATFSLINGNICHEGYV

Row | SMILES | Rate of tumor growth [1] | IC50 [2, 4] [nM] | IC50 [3] [nM] | IC50 [2] [nM] | binding affinity on the NMB receptor ([3]; result in words) | increase in the affinity for the NMB receptor ([3]; fold increase compared with litorin or [D-Phe1, Leu8,9] litorin) [time]
1 | CCCC[C@H](NC(=O)[C@H](CC(C)C)NC(=O)[C@H](Cc1c[nH]cn1)NC(=O)CCNC(=O)[C@@H](NC(=O)[C@H](C)NC(=O)[C@H](Cc1c[nH]c2ccccc12)NC(=O)[C@H](CCC(N)=O)NC(=O)[C@H](N)Cc1ccccc1)C(C)C)C(N)=O [Analog #5, H-D-Phe-Gln-Trp-Ala-Val-β-Ala-His-Leu-Nle-NH2] (H-[dF]QWAV[βAla]HL[Nle]-NH2) | significantly (p < 0.05) inhibited | 2.1 | 8.9 |  |  | 
2 | CCCC[C@H](NC(=O)[C@H](Cc1ccccc1)NC(=O)[C@H](Cc1c[nH]cn1)NC(=O)CCNC(=O)[C@@H](NC(=O)[C@H](C)NC(=O)[C@H](Cc1c[nH]c2ccccc12)NC(=O)[C@H](CCC(N)=O)NC(=O)[C@H](N)Cc1ccccc1)C(C)C)C(N)=O [Analog #1, H-D-Phe-Gln-Trp-Ala-Val-β-Ala-His-Phe-Nle-NH2] (H-[dF]QWAV[βAla]HF[Nle]-NH2) |  | 0.2 | 1 |  |  | 
3 | CCCC[C@H](NC(=O)[C@H](Cc1ccccc1)NC(=O)[C@H](Cc1c[nH]cn1)NC(=O)CCNC(=O)[C@@H](NC(=O)[C@H](C)NC(=O)[C@H](Cc1c[nH]c2ccccc12)NC(=O)[C@H](CCC(N)=O)NC(=O)[C@H](N)Cc1c[nH]c2ccccc12)C(C)C)C(N)=O [Analog #4, H-D-Trp-Gln-Trp-Ala-Val-β-Ala-His-Phe-Nle-NH2] (H-[dW]QWAV[βAla]HF[Nle]-NH2) |  | 0.1 | 0.04 |  |  | 
4 | CC(C)C[C@H](NC(=O)[C@H](CC(C)C)NC(=O)[C@H](Cc1c[nH]cn1)NC(=O)CNC(=O)[C@@H](NC(=O)[C@H](C)NC(=O)[C@H](Cc1c[nH]c2ccccc12)NC(=O)[C@H](CCC(N)=O)NC(=O)[C@@H]1CCC(=O)N1)C(C)C)C(N)=O [Leu-Litorin, p-Glu-Gln-Trp-Ala-Val-Gly-His-Leu-Leu-NH2, reference compound] |  |  | > 10000 | 23 | almost no binding affinity | 
5 | CC(C)C[C@H](NC(=O)[C@H](CC(C)C)NC(=O)[C@H](Cc1c[nH]cn1)NC(=O)CCNC(=O)[C@@H](NC(=O)[C@H](C)NC(=O)[C@H](Cc1c[nH]c2ccccc12)NC(=O)[C@H](CCC(N)=O)NC(=O)[C@H](N)Cc1ccccc1)C(C)C)C(N)=O [Analog #2, H-D-Phe-Gln-Trp-Ala-Val-β-Ala-His-Leu-Leu-NH2] (H-[dF]QWAV[βAla]HLL-NH2) |  | 1 | 41 |  |  | 11.7
6 | CSCC[C@H](NC(=O)[C@H](Cc1ccccc1)NC(=O)[C@H](Cc1c[nH]cn1)NC(=O)CNC(=O)[C@@H](NC(=O)[C@H](C)NC(=O)[C@H](Cc1c[nH]c2ccccc12)NC(=O)[C@H](CCC(N)=O)NC(=O)[C@@H]1CCC(=O)N1)C(C)C)C(N)=O [Litorin, p-Glu-Gln-Trp-Ala-Val-Gly-His-Phe-Met-NH2, reference compound] |  |  | 1.66 | 2.4 |  | 
7 | CCCC[C@H](NC(=O)[C@H](Cc1ccccc1)NC(=O)[C@H](Cc1cnc[nH]1)NC(=O)CCNC(=O)[C@@H](NC(=O)[C@H](C)NC(=O)[C@H](Cc1c[nH]c2ccccc12)NC(=O)[C@H](CCC(N)=O)NC(=O)[C@H](N)Cc1ccc(O)cc1)C(C)C)C(N)=O [Analog #3, H-D-Tyr-Gln-Trp-Ala-Val-β-Ala-His-Phe-Nle-NH2] (H-[dY]QWAV[βAla]HF[Nle]-NH2) |  |  | 1 |  |  | 
8 | CC(C)C[C@H](NC(=O)[C@H](CC(C)C)NC(=O)[C@H](Cc1c[nH]cn1)NC(=O)CNC(=O)[C@@H](NC(=O)[C@H](C)NC(=O)[C@H](Cc1c[nH]c2ccccc12)NC(=O)[C@H](CCC(N)=O)NC(=O)[C@H](N)Cc1ccccc1)C(C)C)C(N)=O [[D-Phe^1, Leu^8,9] litorin, H-D-Phe-Gln-Trp-Ala-Val-Gly-His-Leu-Leu-NH2, reference compound] |  |  | 480 | 2.8 |  | 
